Assay results from ChEMBL document CHEMBL6078694, “Divergent Metabolism of Cyclo-l-Trp-l-Leu in Streptomyces albofaciens by Hydroxylation and Nucleobase Transfer with Two Cytochrome P450 Enzymes” (J Nat Prod, 2024).
Active and inactive are the calls of the source.

Key:
Assay type in all cases: functional, organism-based
Conditions in all cases: time 16-20 hrs
[1] = system: Escherichia coli; test: Antibacterial activity against Escherichia coli ATCC 35218 assessed as reduction in bacterial growth measured after 16 to 20 hrs by agar disk diffusion method
[2] = system: Enterococcus faecalis; test: Antibacterial activity against Enterococcus faecalis DSM 2570 assessed as reduction in bacterial growth measured after 16 to 20 hrs by agar disk diffusion method
[3] = system: Klebsiella pneumoniae; test: Antibacterial activity against Klebsiella pneumoniae DSM 26371 assessed as reduction in bacterial growth measured after 16 to 20 hrs by agar disk diffusion method
[4] = system: Bacillus subtilis; test: Antibacterial activity against Bacillus subtilis NCLB3610 assessed as reduction in bacterial growth measured after 16 to 20 hrs by agar disk diffusion method
[5] = system: Niallia circulans; test: Antibacterial activity against Bacillus circulans NRRL B-380 assessed as reduction in bacterial growth measured after 16 to 20 hrs by agar disk diffusion method
[6] = system: Staphylococcus aureus; test: Antibacterial activity against Staphylococcus aureus ATCC29213 assessed as reduction in bacterial growth measured after 16 to 20 hrs by agar disk diffusion method
[7] = system: Staphylococcus delphini; test: Antibacterial activity against Staphylococcus delphini DSM 20771 assessed as reduction in bacterial growth measured after 16 to 20 hrs by agar disk diffusion method
[8] = system: Pseudomonas aeruginosa; test: Antibacterial activity against Pseudomonas aeruginosa ATCC 27853 assessed as reduction in bacterial growth measured after 16 to 20 hrs by agar disk diffusion method

Measured: Activity

CC(C)C[C@@H]1NC(=O)[C@@H]2C[C@]3(c4nc5c(=O)[nH]c(N)nc5[nH]4)c4ccccc4N[C@@H]3N2C1=O
inactive: all assays above

CC(C)C[C@@H]1NC(=O)[C@H]([C@@H](O)c2c[nH]c3ccccc23)NC1=O
inactive: all assays above
